Data published in patent US4110327A, “2,3 Diketo-piperazinocarbonylamino alkanoic acids and derivatives” (Toyama Chemical Co., Ltd., priority 1974, dated 1978).
Converted amounts (≈) assume the structure as drawn.

What was measured:
Test in all cases: MIC against standard strain, plate method
Type in all cases: cell-based
[1] = system: Escherichia coli NIHJ; conditions: unit assumed
Method: (§1) The minimum inhibitory concentrations (MIC) was determined by the plate method disclosed in "Chemotherapy" (Japan), Vol. 16, (1968), pages 98 - 99. The culture medium used was a Heart infusion agar (pH 7.4). The number of the cells per plate used in the inoculum as 10^4 (10^6 cells/ml).

[2] = system: Staphylococcus aureus 209p; conditions: unit assumed
Method: as §1

[3] = system: Klebsiella pneumoniae; conditions: unit assumed
Method: as §1

[4] = system: Proteus vulgaris 3027; conditions: Proteus vulgaris 3027, standard strain; unit assumed
Method: as §1

[5] = system: Pseudomonas aeruginosa I.F.O.; conditions: unit assumed
Method: as §1

Row | SMILES | MIC [1] [µg/mL] | MIC [2] [µg/mL] | MIC [3] [µg/mL] | MIC [4] [µg/mL] | MIC [5] [µg/mL]
1 | CN1CCN(C(=O)NC(C(=O)N[C@@H]2C(=O)N3[C@@H]2SC(C)(C)[C@@H]3C(=O)O)c2cccs2)C(=O)C1=O (stereo partly drawn) [compound 58] | < 1.57 | < 1.57 | 25 (≈ 49.1 µM) | 3.13 (≈ 6.14 µM) | 12.5 (≈ 24.5 µM)
2 | CC1(C)S[C@@H]2[C@H](NC(=O)[C@H](NC(=O)N3CC(=O)N(C(=O)c4ccccc4)CC3=O)c3ccccc3)C(=O)N2[C@H]1C(=O)O [compound 34] | 3.13 (≈ 5.27 µM) | 1.57 (≈ 2.64 µM) | 50 (≈ 84.2 µM) | 50 (≈ 84.2 µM) | 100 (≈ 168 µM)
3 | CC1(C)S[C@@H]2[C@H](NC(=O)[C@H](NC(=O)N3CCN(CCCl)C(=O)C3=O)c3ccccc3)C(=O)N2[C@H]1C(=O)O [compound 44] | < 1.57 | < 1.57 | < 1.57 | < 1.57 | 6.25 (≈ 11.3 µM)
4 | C=CCN1CCN(C(=O)N[C@@H](C(=O)N[C@@H]2C(=O)N3[C@@H]2SC(C)(C)[C@@H]3C(=O)O)c2ccccc2)CC1=O [compound 25] | < 1.57 | < 1.57 | 50 (≈ 97 µM) | 3.13 (≈ 6.07 µM) | 25 (≈ 48.5 µM)
5 | CC1(C)S[C@@H]2[C@H](NC(=O)[C@H](NC(=O)N3CCN(C(=O)c4ccccc4)CC3=O)c3ccccc3)C(=O)N2[C@H]1C(=O)O [compound 7] | < 1.57 | < 1.57 | 12.5 (≈ 21.6 µM) | 6.25 (≈ 10.8 µM) | 200 (≈ 345 µM)
6 | CCCCCCCCN1CCN(C(=O)NC(C(=O)NC2C(=O)N3C2SC(C)(C)C3C(=O)OCCN2CCOCC2)c2ccccc2)C(=O)C1=O (stereo not drawn) [compound 56] | < 0.4 | < 0.4 | 1.57 (≈ 2.2 µM) | 0.79 (≈ 1.11 µM) | 12.5 (≈ 17.5 µM)
7 | CC(=O)N1CCN(C(=O)N[C@@H](C(=O)N[C@@H]2C(=O)N3[C@@H]2SC(C)(C)[C@@H]3C(=O)O)c2ccccc2)C(=O)C1C (stereo partly drawn) [compound 4] | < 1.57 | < 1.57 | 12.5 (≈ 23.5 µM) | 3.13 (≈ 5.89 µM) | 25 (≈ 47 µM)
8 | CN1CCN(C(=O)NC(C(=O)NC2C(=O)N3C(C(=O)O)=C(CSc4nncs4)CSC23)c2ccccc2)C(=O)C1=O (single isomer, unassigned) [compound 64] | < 0.1 | 0.79 (≈ 1.28 µM) | 1.57 (≈ 2.54 µM) | 3.13 (≈ 5.07 µM) | 25 (≈ 40.5 µM)
9 | CC1(C)S[C@@H]2[C@H](NC(=O)[C@H](NC(=O)N3CCN(CCO)C(=O)C3)c3ccccc3)C(=O)N2[C@H]1C(=O)O [compound 24] | < 1.57 | 3.13 (≈ 6.02 µM) | 50 (≈ 96.2 µM) | 25 (≈ 48.1 µM) | 50 (≈ 96.2 µM)
10 | CCOC(=O)N1CCN(C(=O)N[C@@H](C(=O)N[C@@H]2C(=O)N3[C@@H]2SC(C)(C)[C@@H]3C(=O)O)c2ccccc2)C(=O)C1 [compound 12] | 3.13 (≈ 5.72 µM) | < 1.57 | 6.25 (≈ 11.4 µM) | 12.5 (≈ 22.8 µM) | 50 (≈ 91.3 µM)
11 | CN1CCN(C(=O)N[C@@H](C(=O)N[C@@H]2C(=O)N3[C@@H]2SC(C)(C)[C@@H]3C(=O)O)c2ccc(O)cc2)C(=O)C1=O (single isomer, unassigned) [compound 48] | < 0.4 | < 0.4 | 25 (≈ 48.1 µM) | < 0.4 | 6.25 (≈ 12 µM)
12 | CC1(C)S[C@@H]2[C@H](NC(=O)[C@H](NC(=O)N3CCN(C(=O)Nc4ccccc4)C(=O)C3)c3ccccc3)C(=O)N2[C@H]1C(=O)O [compound 33] | < 1.57 | < 1.57 | 6.25 (≈ 10.5 µM) | 3.13 (≈ 5.26 µM) | 50 (≈ 84.1 µM)
13 | C=CCN1CCN(C(=O)N[C@@H](C(=O)N[C@@H]2C(=O)N3[C@@H]2SC(C)(C)[C@@H]3C(=O)O)c2ccccc2)C(=O)C1=O (single isomer, unassigned) [compound 42] | < 1.57 | 1.57 (≈ 2.96 µM) | 6.25 (≈ 11.8 µM) | < 1.57 | 12.5 (≈ 23.6 µM)
14 | CC(=O)NC(=O)N1CCN(C(=O)N[C@@H](C(=O)N[C@@H]2C(=O)N3[C@@H]2SC(C)(C)[C@@H]3C(=O)O)c2ccccc2)C(=O)C1 [compound 11] | < 1.57 | < 1.57 | 50 (≈ 89.2 µM) | 6.25 (≈ 11.1 µM) | 50 (≈ 89.2 µM)
15 | COCOC(=O)[C@@H]1N2C(=O)[C@@H](NC(=O)[C@H](NC(=O)N3CCN(C)C(=O)C3=O)c3ccccc3)[C@H]2SC1(C)C (single isomer, unassigned) [compound 50] | < 0.79 | < 0.79 | 6.25 (≈ 11.4 µM) | < 0.79 | 6.25 (≈ 11.4 µM)
16 | CCN1CCN(C(=O)NC(C(=O)NC2C(=O)N3C(C(=O)O)=C(CSc4cccc[n+]4[O-])CSC23)c2ccccc2)C(=O)C1=O (single isomer, unassigned) [compound 70] | 1.57 (≈ 2.45 µM) | < 0.79 | 1.56 (≈ 2.43 µM) | < 0.79 | 100 (≈ 156 µM)
17 | CC1(C)S[C@@H]2[C@H](NC(=O)[C@H](NC(=O)N3CCN(C4CCCC4)C(=O)C3)c3ccccc3)C(=O)N2[C@H]1C(=O)O (single isomer, unassigned) [compound 32] | < 1.57 | < 1.57 | 12.5 (≈ 23 µM) | 6.25 (≈ 11.5 µM) | 12.5 (≈ 23 µM)
18 | CC(C)CCN1CCN(C(=O)N[C@@H](C(=O)N[C@@H]2C(=O)N3[C@@H]2SC(C)(C)[C@@H]3C(=O)O)c2ccccc2)CC1=O [compound 21] | 1.57 (≈ 2.88 µM) | < 0.79 | 25 (≈ 45.8 µM) | 3.13 (≈ 5.74 µM) | 25 (≈ 45.8 µM)
19 | CC1(C)S[C@@H]2[C@H](NC(=O)[C@H](NC(=O)N3CCN(C(=O)C(Cl)Cl)CC3=O)c3ccccc3)C(=O)N2[C@H]1C(=O)O [compound 2] | < 1.57 | < 1.57 | 12.5 (≈ 21.3 µM) | 6.25 (≈ 10.7 µM) | 50 (≈ 85.3 µM)
20 | CCCCCCCCN1CCN(C(=O)NC(C(=O)NC2C(=O)N3C2SC(C)(C)C3C(=O)OCCN2CCCCC2)c2ccccc2)C(=O)C1=O (single isomer, unassigned) [compound 54] | 0.4 (≈ 0.561 µM) | 0.79 (≈ 1.11 µM) | 0.79 (≈ 1.11 µM) | 0.79 (≈ 1.11 µM) | 12.5 (≈ 17.5 µM)
21 | CCCCCCN1CCN(C(=O)N[C@@H](C(=O)N[C@@H]2C(=O)N3[C@@H]2SC(C)(C)[C@@H]3C(=O)O)c2ccccc2)CC1=O [compound 29] | < 1.57 | 3.13 (≈ 5.59 µM) | 3.13 (≈ 5.59 µM) | 3.13 (≈ 5.59 µM) | 12.5 (≈ 22.3 µM)
22 | CC1(C)S[C@@H]2[C@H](NC(=O)[C@H](NC(=O)N3CCN(S(C)(=O)=O)CC3=O)c3ccccc3)C(=O)N2[C@H]1C(=O)O [compound 5] | < 1.57 | < 1.57 | 12.5 (≈ 22.6 µM) | < 1.57 | 25 (≈ 45.2 µM)
23 | C/C=C/CN1CCN(C(=O)N[C@@H](C(=O)N[C@@H]2C(=O)N3[C@@H]2SC(C)(C)[C@@H]3C(=O)O)c2ccccc2)CC1=O [compound 28] | < 1.57 | < 1.57 | 25 (≈ 47.2 µM) | 3.13 (≈ 5.91 µM) | 25 (≈ 47.2 µM)
24 | CCCCN1CCN(C(=O)N[C@@H](C(=O)N[C@@H]2C(=O)N3[C@@H]2SC(C)(C)[C@@H]3C(=O)O)c2ccccc2)CC1=O [compound 18] | < 1.57 | < 1.57 | 25 (≈ 47 µM) | 3.13 (≈ 5.89 µM) | 12.5 (≈ 23.5 µM)
25 | CN1CCN(C(=O)N[C@@H](C(=O)N[C@@H]2C(=O)N3[C@@H]2SC(C)(C)[C@@H]3C(=O)OC2OC(=O)c3ccccc32)c2ccccc2)C(=O)C1=O (single isomer, unassigned) [compound 49] | 0.79 (≈ 1.24 µM) | < 0.4 | 12.5 (≈ 19.7 µM) | 1.57 (≈ 2.47 µM) | 12.5 (≈ 19.7 µM)
26 | CN1CCN(C(=O)NC(C(=O)NC2C(=O)N3C(C(=O)O)=C(CSc4nncn4C)CSC23)c2ccccc2)C(=O)C1=O (single isomer, unassigned) [compound 65] | 0.79 (≈ 1.29 µM) | 3.13 (≈ 5.09 µM) | 3.13 (≈ 5.09 µM) | 3.13 (≈ 5.09 µM) | 25 (≈ 40.7 µM)
27 | CN1CCN(C(=O)N[C@@H](C(=O)N[C@@H]2C(=O)N3[C@@H]2SC(C)(C)[C@@H]3C(=O)OCOC(=O)C(C)(C)C)c2ccccc2)C(=O)C1=O (single isomer, unassigned) [compound 52] | 0.79 (≈ 1.28 µM) | 0.79 (≈ 1.28 µM) | 25 (≈ 40.5 µM) | 1.57 (≈ 2.54 µM) | 25 (≈ 40.5 µM)
